Assay results reported in patent US20240319173A1, “REAGENTS AND METHODS FOR PROMOTING ARTERIAL ENDOTHELIUM DIFFERENTIATION AND NITRIC OXIDE PRODUCTION” (Wisconsin Alumni Research Foundation, priority 2023, published 2024).

Key:
AECs = test: Nitric oxide (NO) production assay with DAF-FM; format: cell-based, human; details: AECs treated for 2 days, 1 μM DAF-FM, flow cytometry (FIG. 4A, 4B)
Experimental: FIG. 4A is a graph of nitric oxide (NO) production in response to contacting NOS3-NLuc-2A-tdTomato construct-containing reporter cells derived from arterial endothelial with compounds identified in the screen for 2 days.
These AECs were seeded on a vitronectin-coated 24-well plate (1×10^5 cells/well) with FVIR medium. Candidate compounds were added to the medium. Two days later, the medium was changed to fresh FVIR media containing 1 μM DAF-FM (4-Amino-5-Methylamino-2′,7′-Difluorofluorescein Diacetate). Cells were cultured for 30 mins and harvested for flow cytometric analysis. DAF-FM is nonfluorescent until it reacts with NO to form a fluorescent benzotriazole. Results of these experiments are shown in FIG. 3A, FIG. 3B, and FIG. 4.

[1] = tested on: NOS3-NLuc-2A-tdTomato hPSCs; test: Arterial endothelial cell (AEC) differentiation, flow cytometry for CD144+ DLL4+ cells; format: cell-based, human; details: for AEC differentiation from PSCs: general statement, timing not given
Source text: FIG. 3A is a bar graph showing arterial endothelial cell differentiation in response to treatment on days 2 through 6 of different concentrations of compounds identified in compound screening assays. Differentiated arterial endothelial cells were identified by flow cytometry for CD144+ DLL4+ cells after 6 days of treatment.
FIG. 3B is a bar graph showing arterial endothelial cell differentiation in response to three specific compounds at day 3-6 of differentiation.
NOS3-NLuc-Tom human pluripotent stem cells (hPSCs), prepared as set forth above, were cultured in E8BAC medium for two days (day 0-2) to induce mesoderm formation. On days 2-5 cells received Five Factor medium daily, and AEC collected on day 6. More than 90% of the resulting cells were CD144^+CXCR4^+DLL4^+, consistent with differentiation to AEC cells.
C21-C33 compounds were further tested to confirm their effects. […] Thus, the effects of C21, C22, and C24-C31 on AEC differentiation from NOS3-NLuc-2A-tdTomato hPSCs were measured.

[2] = compound added from day 2 to day 6 of differentiation, dose-dependent (FIG. 3A)
[3] = compound added from day 3 to day 6 of differentiation (FIG. 3B)

`COc1ccc(C2CCCN2Cc2cc(C(C)(C)C)cc(O)c2O)cc1` (centres unmarked) [C22] was tested, and the “NO production (DAF-FM fluorescence) compared to control treatment” value (“NO production … compared to control treatment” for short) (AECs) was “increase”, the “percentage of AEC on day 6 compared to control treatment” value (“percentage of AEC” below) [1, 2] was “increase” and the “AEC differentiation from PSCs” value [1] was “increase”.
For `CNC(=O)c1c(F)cccc1Nc1nc(Nc2cc3c(cc2OC)CCN3C(=O)CN(C)C)nc2[nH]ccc12` [C31, GSK1838705A, reference compound], the “NO production … compared to control treatment” value (AECs) was “increase”.
With `CNS(=O)(=O)c1ccc(NC2CCc3ccccc32)c([N+](=O)[O-])c1` (centres unmarked) [C25] the “AEC differentiation from PSCs” value [1] was “increase”.
In the case of `CCCCCCCCCCCCCCCCCCOCC(COP(=O)([O-])OCC[N+](C)(C)C)OC` (centres unmarked) [C33, 1-Octadecyl-2-methylglycero-3 PC], the “percentage of AEC” value [1, 3] is reported as “increased” and the “AEC differentiation from PSCs” value [1] is reported as “increase”.
With `O=S(=O)(N1CCCCCC1)N1CCN(c2ccnc3cc(Cl)ccc23)CC1` [C21] the “NO production … compared to control treatment” value (AECs) was “increase”, the “percentage of AEC” value [1, 2] was “increase” and the “percentage of AEC” value [1, 3] was “increased”. The “AEC differentiation from PSCs” value [1] was “increase”.
With `CCc1ccc(S(=O)(=O)N2CCCc3cc(C)ccc32)cc1` [C23] the “NO production … compared to control treatment” value (AECs) was “increase”, the “percentage of AEC” value [1, 3] was “increased” and the “AEC differentiation from PSCs” value [1] was “increase”.
With `Cc1ccc(CN2C(=O)NC(C)(c3ccc(Cl)cc3Cl)C2=O)cc1` (centres unmarked) [C24] the “NO production … compared to control treatment” value (AECs) was “increase” and the “AEC differentiation from PSCs” value [1] was “increase”.
`CC1=CC(=O)C2=C(C)CC[C@@H]3[C@H](OC(=O)[C@H]3C)[C@@H]12` [C28, Leucomisine] was tested, and the “AEC differentiation from PSCs” value [1] was “increase”.
